According to patent US20130065910A1, “ORAL MECLIZINE AQUEOUS FORMULATIONS WITH TASTE FLAVORING AGENT” (COMPREHENSIVE DRUG ENTERPRISES LTD., priority 2010, published 2013):
Structures can show the parent of a compound that is named as a salt.

Legend:
[1] = Solubility of meclizine hydrochloride in Solutol HS15 and HP-β-CD solutions; type: physicochemical; conditions: aqueous with cosolvent or surfactant or cyclodextrin, thermodynamic from solid, room temperature (22° C.)
Experimental: The ability of Solutol® HS15 and HP-β-CD to enhance the aqueous solubility of meclizine hydrochloride is determined in this example.
Aqueous solutions containing 0.1, 0.5, 1, 2.5, 5, 10, 15, 20, and 25% (w/v) (w/v) of Solutol® HS15 or HP-β-CD solubilizers were prepared. 10 mg samples of meclizine hydrochloride were added to a 4 ml portion of each of the above solutions. The samples were left to be stirred overnight at room temperature (22° C.). If during this time all drug dissolved, additional meclizine was added until a suspension was formed (i.e. saturated drug solution formed). After further stirring for up to 24 hours, suspensions were centrifuged at 14000 rpm for 10 minutes, and then the supernatants were filtered (0.45 μm filter, Sartorius, Germany) to obtain saturated meclizine hydrochloride solutions. The filtrate samples were diluted and detected by HPLC and the concentration of meclizine hydrochloride in the samples was calculated with the calibration curve made from standard solutions of meclizine hydrochloride.

[2] = cited from earlier work
[3] = test system: isolated guinea pig ileum; conditions: cited from earlier work
[4] = test system: acetylcholine; conditions: in vivo; cited from earlier work
[5] = test system: histamine; conditions: in vivo; cited from earlier work
[6] = test system: histamine; conditions: guinea pigs; cited from earlier work
[7] = up to 225 mg/day for 9.5 years; cited from earlier work

Cc1cccc(CN2CCN(C(c3ccccc3)c3ccc(Cl)cc3)CC2)c1 (stereo not shown) [meclizine hydrochloride]
solubility ([1]; 0.1% (w/v) HP-β-CD aqueous solution): 3.4 mg/mL
solubility ([1]; 0.1% (w/v) Solutol HS15 aqueous solution): 2.6 mg/mL
solubility ([1]; 0.5% (w/v) HP-β-CD aqueous solution): 6.1 mg/mL
solubility ([1]; 0.5% (w/v) Solutol HS15 aqueous solution): 3.2 mg/mL
solubility ([1]; 1% (w/v) HP-β-CD aqueous solution): 7.1 mg/mL
solubility ([1]; 1% (w/v) Solutol HS15 aqueous solution): 4.3 mg/mL
solubility ([1]; 2.5% (w/v) HP-β-CD aqueous solution): 9.9 mg/mL
solubility ([1]; 2.5% (w/v) Solutol HS15 aqueous solution): 5.2 mg/mL
solubility ([1]; 5% (w/v) HP-β-CD aqueous solution): 14.3 mg/mL
solubility ([1]; 5% (w/v) Solutol HS15 aqueous solution): 9.2 mg/mL
solubility ([1]; 10% (w/v) HP-β-CD aqueous solution): 24.6 mg/mL
solubility ([1]; 10% (w/v) Solutol HS15 aqueous solution): 15.4 mg/mL
solubility ([1]; 15% (w/v) HP-β-CD aqueous solution): 30.5 mg/mL
solubility ([1]; 15% (w/v) Solutol HS15 aqueous solution): 22.8 mg/mL
solubility ([1]; 20% (w/v) HP-β-CD aqueous solution): 34.3 mg/mL
solubility ([1]; 20% (w/v) Solutol HS15 aqueous solution): 36.8 mg/mL
solubility ([1]; 25% (w/v) HP-β-CD aqueous solution): 37.9 mg/mL
solubility ([1]; 25% (w/v) Solutol HS15 aqueous solution): 40.1 mg/mL
solubility in alcohol ([2]; alcohol): slightly soluble
solubility in water ([2]; water): practically insoluble

Cc1cccc(CN2CCN(C(c3ccccc3)c3ccc(Cl)cc3)CC2)c1 (stereo not shown) [meclizine, 1-[(4-chlorophenyl)-phenyl-methyl]-4-[(3-methylphenyl)methyl]piperazine]
inhibiting the spasmogenic action of histamine [3]: relatively weak
blocking action against acetylcholine [4]: slight blocking action
blocking the vasodepressor response to histamine [5]: marked effect
protective activity against nebulized histamine and lethal doses of intravenously injected histamine [6]: marked protective activity
tolerability (adverse effects) [7]: no adverse effect reported
